Laboratory results from EP4813403A1, “USE OF GLP-1R/GIPR DOUBLE-TARGET AGONIST IN PREPARING ANIMAL DRUG” (Hangzhou Zhongmeihuadong Pharmaceutical Co., Ltd., priority 2023, dated 2025).
Read-outs that look alike come from different tables or passages of the source.

Experiments:
human GIP Receptor = target: T1, human GIP Receptor (Homo sapiens, UniProt P48546); experiment: In vitro binding activity to human GIP receptor ([125I]GIP displacement, crude cell membranes); conditions: ratio of the Ki value of the endogenous ligand to the Ki value of the test compound; larger ratio = stronger binding
T1 construct: expressed in transfected cells
T1 sequence (P48546 22-466): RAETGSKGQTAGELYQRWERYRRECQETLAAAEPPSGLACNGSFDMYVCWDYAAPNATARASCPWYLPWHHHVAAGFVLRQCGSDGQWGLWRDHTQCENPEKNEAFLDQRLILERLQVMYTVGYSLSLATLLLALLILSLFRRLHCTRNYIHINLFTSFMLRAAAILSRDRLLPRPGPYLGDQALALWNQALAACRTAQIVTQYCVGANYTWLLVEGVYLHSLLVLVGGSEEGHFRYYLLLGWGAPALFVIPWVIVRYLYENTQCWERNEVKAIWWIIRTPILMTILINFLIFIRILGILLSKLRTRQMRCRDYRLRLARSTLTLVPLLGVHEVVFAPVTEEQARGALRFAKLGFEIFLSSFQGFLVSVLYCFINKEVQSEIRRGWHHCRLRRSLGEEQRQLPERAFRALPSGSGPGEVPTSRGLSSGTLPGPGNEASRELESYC
Method: (§1) 89 µL of membrane dissolved in binding buffer (50 mM Hepes, pH 7.4, 5 mM MgCl2 , 5 mM EDTA, 0.005% TWEEN, 0.005% HSA) was transferred to a 96-well test plate (5 µg/well). The compound was serially diluted in DMSO, and then, 1 µL of the diluted compound or 100% DMSO was added to the test plate containing the membrane solution. 10 µL of [^125I] […] The test plate was left at room temperature for 90 minutes. The membrane complexes were harvested into a GF/B plate pre-coated with 0.5% PEI by using a Cell Harvester, and washed for 3 times with 500 µL of pre-cooled elution buffer (50 mM Hepes, pH 7.4, 500 mM NaCl) at 4°C. After drying at 37°C for 2 hours, 50 µL of scintillation fluid was added to each well. The plate was read with a MicroBeta2 scintillation counter after sealing and settling for at least 1 hour so as to determine the membrane bound radioligand level.
hGIP and the compound of the present invention were dissolved in DMSO and stored at -80°C. 98 µL of membrane dissolved in binding buffer (50 mM HEPES pH 7.4, 5 mM MgCl2, 1 mM CaCl2, 0.1% BSA, 0.005% Tween-20) was transferred to a 96-well test plate (15 µg/well). The compound was serially diluted in DMSO, and then, 2 µL of the diluted compounds or 100% DMSO was added to the test plate containing the membrane solution. […] The test plate was left at room temperature for 90 minutes. The membrane complexes were harvested into a GF/B plate pre-coated with 0.5% PEI by using a Cell Harvester, and washed for 3 times with 500 µL of pre-cooled elution buffer (50 mM Tris-HCl pH 7.4, 125 mM NaCl) at 4°C. After drying at 37°C for 2 hours, 50 µL of scintillation fluid was added to each well. The plate was read with a MicroBeta2 scintillation counter after sealing and settling for at least 1 hour so as to determine the membrane bound radioligand level.
The IC50 concentration was converted to Ki (Ki was the inhibition constant) using the Cheng-Prusoff equation. Table 1. Receptor Binding Affinity, Ki Ratio

db/db mice = experiment: Pharmacodynamic effects in db/db mice, single subcutaneous administration (blood glucose); format: in vivo; conditions: single s.c. 10 nmol/kg
Method: In this study, 8-9 week old male db/db mice were used. The db/db mice were placed in an individual ventilated cage (IVC) facility with a controlled temperature (20-26°C) and humidity (40-70%) and a controlled 12h:12 h light-dark cycle. The mice can receive food and water ad libitum. Blood was sampled at the tail tip, and the random base blood glucose was measured by a Roche blood glucose meter. The mice were randomly divided into groups according to the random initial fasting blood glucose and initial body weight (n=6/group), and each group had similar body weight and blood glucose.
After a single subcutaneous administration, the random base blood glucoses were recorded at the set time point (0 to 120 hours, the recording of the random base blood glucose was stopped until there was no difference between the random base blood glucose of the compound and that of the vehicle group), and the daily body weight and food intake were also recorded. The data results were statistically analyzed using GraphPad Prism8, and the statistical differences among the groups were analyzed following a T-Test. Significant differences were identified at p<0.05.
Hypoglycemic Duration: the longest time during which the random base blood glucose of the compound has a significant difference (p<0.05) vs. the vehicle group. Table 13. Hypoglycemic Duration of the Compounds

human GLP-1R = human GLP-1R (Homo sapiens, UniProt P43220); experiment: In vitro binding activity to human GLP-1 receptor ([125I]GLP-1 displacement, crude cell membranes); set-up: expressed in transfected cells; conditions: ratio of the Ki value of the endogenous ligand to the Ki value of the test compound; larger ratio = stronger binding
Method: as §1
The IC50 concentration was converted to Ki (Ki was the inhibition constant) using the Cheng-Prusoff equation.

[1] = Pharmacokinetics in C57 mice; conditions: in vivo
Method: After subcutaneous or intravenous administration to C57 mice, plasma was collected and the drug concentration in plasma was determined to illustrate the in vivo pharmacokinetic properties of the compound according to the present invention. […] 20.0 µL of thawed plasma sample was taken. 20 µL of 50% aqueous methanol solution (containing 100 ng mL^-1 Tolbutamide) and 60 µL of acetonitrile were added sequentially to precipitate protein. The mixture was vortexed for 5 minutes, and centrifuged at 4815 rpm for 8 minutes. 50.0 µL of the supernatant was taken, into which 50.0 µL of 0.5% aqueous formic acid solution was added. The mixture was vortexed for 5 minutes. 50 µL of the mixture solution was sampled and injected into the LC-MS/MS to determine the drug concentration in plasma. Based on the drug concentration in plasma of the compounds in C57 mice, the pharmacokinetic parameters were calculated by applying the software Winnolin 8.3 in a non-compartmental model, and the results were shown in Table 7 and Table 8 below. Table 7 Average Pharmacokinetic Parameters after Single Subcutaneous Administration to Mice

[2] = Group 2, longest time with p<0.05 vs. vehicle

Chain of human GLP-1R (P43220 24-463): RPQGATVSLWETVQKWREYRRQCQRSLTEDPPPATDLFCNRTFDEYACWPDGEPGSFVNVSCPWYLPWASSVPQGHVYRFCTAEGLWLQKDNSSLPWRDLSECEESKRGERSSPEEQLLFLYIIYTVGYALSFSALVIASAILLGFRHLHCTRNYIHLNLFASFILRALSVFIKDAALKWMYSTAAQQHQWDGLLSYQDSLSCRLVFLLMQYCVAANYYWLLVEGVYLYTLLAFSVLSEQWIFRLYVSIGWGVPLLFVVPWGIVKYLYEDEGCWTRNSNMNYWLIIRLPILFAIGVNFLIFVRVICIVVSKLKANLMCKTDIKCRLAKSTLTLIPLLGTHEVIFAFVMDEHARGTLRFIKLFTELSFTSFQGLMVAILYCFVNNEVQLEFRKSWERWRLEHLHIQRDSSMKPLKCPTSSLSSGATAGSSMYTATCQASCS

CC[C@H](C)[C@H](NC(=O)C(C)(C)NC(=O)[C@H](Cc1ccc(O)cc1)NC(=O)[C@H](CC(=O)O)NC(=O)[C@H](CO)NC(=O)[C@@H](NC(=O)C(C)(Cc1ccccc1)NC(=O)[C@@H](NC(=O)CNC(=O)[C@H](CCC(=O)O)NC(=O)C(C)(C)NC(=O)[C@@H](N)Cc1ccc(O)cc1)[C@@H](C)O)[C@@H](C)O)C(=O)NC(C)(C)C(=O)N[C@@H](CC(C)C)C(=O)N[C@@H](CC(=O)O)C(=O)N[C@@H](CCCCN)C(=O)N[C@@H](CCC(N)=O)C(=O)N[C@@H](C)C(=O)N[C@@H](CCC(N)=O)C(=O)N[C@@H](C)C(=O)N[C@@H](CCC(=O)O)C(=O)N[C@@H](Cc1ccccc1)C(=O)N[C@H](C(=O)N[C@@H](CCCCN)C(=O)N[C@@H](Cc1c[nH]c2ccccc12)C(=O)N[C@@H](CC(C)C)C(=O)N[C@@H](CC(C)C)C(=O)N[C@@H](CCCCNC(=O)COCCOCCNC(=O)COCCOCCNC(=O)CC[C@H](NC(=O)CCCCCCCCCCCCCCCCCCCCC(=O)O)C(=O)O)C(=O)NCC(=O)NCC(=O)N1CCC[C@H]1C(=O)N[C@@H](CO)C(=O)N[C@@H](CO)C(=O)NCC(=O)N[C@@H](C)C(=O)N1CCC[C@H]1C(=O)N1CCC[C@H]1C(=O)N1CCC[C@H]1C(=O)N[C@@H](CO)C(=O)N[C@@H](CCCCN)C(N)=O)C(C)C (some centres unmarked) [Compound P017]
GIPR Ki ratio (human GIP Receptor): 0.04
Hypoglycemic Duration (db/db mice; [2]): 72 h
GLP-1R Ki ratio (human GLP-1R): 0.56

CC[C@H](C)[C@H](NC(=O)C(C)(C)NC(=O)[C@H](Cc1ccc(O)cc1)NC(=O)[C@H](CC(=O)O)NC(=O)[C@H](CO)NC(=O)[C@@H](NC(=O)C(C)(Cc1ccccc1)NC(=O)[C@@H](NC(=O)CNC(=O)[C@H](CCC(=O)O)NC(=O)C(C)(C)NC(=O)[C@@H](N)Cc1ccc(O)cc1)[C@@H](C)O)[C@@H](C)O)C(=O)NC(C)(C)C(=O)N[C@@H](CC(C)C)C(=O)N[C@@H](CC(=O)O)C(=O)N[C@@H](CCCCN)C(=O)N[C@@H](CCC(N)=O)C(=O)N[C@@H](C)C(=O)N[C@@H](CCC(N)=O)C(=O)N[C@@H](C)C(=O)N[C@@H](CCC(=O)O)C(=O)N[C@@H](Cc1ccccc1)C(=O)N[C@H](C(=O)N[C@@H](CCCCNC(=O)COCCOCCNC(=O)COCCOCCNC(=O)CC[C@H](NC(=O)CCCCCCCCCCCCCCCCCCCCC(=O)O)C(=O)O)C(=O)N[C@@H](Cc1c[nH]c2ccccc12)C(=O)N[C@@H](CC(C)C)C(=O)N[C@@H](CC(C)C)C(=O)N[C@@H](CCCCN)C(=O)NCC(=O)NCC(=O)N1CCC[C@H]1C(=O)N[C@@H](CO)C(=O)N[C@@H](CO)C(=O)NCC(=O)N[C@@H](C)C(=O)N1CCC[C@H]1C(=O)N1CCC[C@H]1C(=O)N1CCC[C@H]1C(=O)N[C@@H](CO)C(=O)N[C@@H](CCCCN)C(N)=O)C(C)C (some centres unmarked) [Compound P014]
GIPR Ki ratio (human GIP Receptor): 0.08
inhibition of the blood glucose AUC, times of that of P001 (db/db mice): 2.6 times
inhibition of the blood glucose AUC, times of that of Tirzepatide (db/db mice): 1.7 times
Hypoglycemic Duration (db/db mice; Group 1, longest time with p<0.05 vs. vehicle): 104 h
AUC(0-inf) ([1]; C57, mouse, iv): 18200 ng·h/mL
AUC(0-t) ([1]; C57, mouse, iv): 17500 ng·h/mL
C0 ([1]; C57, mouse, iv): 1940 ng/mL
half-life ([1]; C57, mouse, iv): 17.2 h
MRT ([1]; C57, mouse, iv, MRT(0-t)): 15.7 h
MRT ([1]; C57, mouse, iv, MRT(0-∞)): 19.2 h
AUC(0-inf) ([1]; C57, mouse, sc): 30200 ng·h/mL
AUC(0-t) ([1]; C57, mouse, sc): 27300 ng·h/mL
Cmax ([1]; C57, mouse, sc): 852 ng/mL
Tmax ([1]; C57, mouse, sc): 6 h
half-life ([1]; C57, mouse, sc): 20.3 h
MRT ([1]; C57, mouse, sc, MRT(0-t)): 22.9 h
MRT ([1]; C57, mouse, sc, MRT(0-∞)): 30.3 h
GLP-1R Ki ratio (human GLP-1R): 0.37

CC[C@H](C)[C@H](NC(=O)C(C)(C)NC(=O)[C@H](Cc1ccc(O)cc1)NC(=O)[C@H](CC(=O)O)NC(=O)[C@H](CO)NC(=O)[C@@H](NC(=O)C(C)(Cc1ccccc1)NC(=O)[C@@H](NC(=O)CNC(=O)[C@H](CCC(=O)O)NC(=O)C(C)(C)NC(=O)[C@@H](N)Cc1ccc(O)cc1)[C@@H](C)O)[C@@H](C)O)C(=O)NC(C)(C)C(=O)N[C@@H](CC(C)C)C(=O)N[C@@H](CC(=O)O)C(=O)N[C@@H](CCCCN)C(=O)N[C@@H](CCC(N)=O)C(=O)N[C@@H](C)C(=O)N[C@@H](CCC(N)=O)C(=O)N[C@@H](C)C(=O)N[C@@H](CCC(=O)O)C(=O)N[C@@H](Cc1ccccc1)C(=O)N[C@H](C(=O)N[C@@H](CCCCNC(=O)COCCOCCNC(=O)COCCOCCNC(=O)COCCOCCNC(=O)CC[C@H](NC(=O)CCCCCCCCCCCCCCCCCCCCC(=O)O)C(=O)O)C(=O)N[C@@H](Cc1c[nH]c2ccccc12)C(=O)N[C@@H](CC(C)C)C(=O)N[C@@H](CC(C)C)C(=O)N[C@@H](CCCCN)C(=O)NCC(=O)NCC(=O)N1CCC[C@H]1C(=O)N[C@@H](CO)C(=O)N[C@@H](CO)C(=O)NCC(=O)N[C@@H](C)C(=O)N1CCC[C@H]1C(=O)N1CCC[C@H]1C(=O)N1CCC[C@H]1C(=O)N[C@@H](CO)C(=O)N[C@@H](CCCCN)C(N)=O)C(C)C (some centres unmarked) [Compound P016]
GIPR Ki ratio (human GIP Receptor): 0.11
inhibition of the blood glucose AUC, times of that of Tirzepatide (db/db mice): 2.2 times
Hypoglycemic Duration (db/db mice; [2]): 104 h
MRT ([1]; C57, mouse, iv, MRT(0-t)): 19.9 h
MRT ([1]; C57, mouse, iv, MRT(0-∞)): 26.6 h
MRT ([1]; C57, mouse, sc, MRT(0-t)): 26 h
MRT ([1]; C57, mouse, sc, MRT(0-∞)): 35.9 h
AUC(0-t) ([1]; mouse, sc, C57 mice, single subcutaneous administration, read-out: AUC(0-t)): 15900 ng·h/mL
AUC(0-inf) ([1]; mouse, sc, C57 mice, single subcutaneous administration, read-out: AUC(0-∞)): 18200 ng·h/mL
Cmax ([1]; mouse, sc, C57 mice, single subcutaneous administration, read-out: Cmax): 434 ng/mL
half-life ([1]; mouse, sc, C57 mice, single subcutaneous administration, read-out: T1/2 (converted)): 23.1 h
Tmax ([1]; mouse, sc, C57 mice, single subcutaneous administration, read-out: Tmax): 8 h
AUC(0-t) ([1]; mouse, C57 mice, single intravenous administration, read-out: AUC(0-t)): 11100 ng·h/mL
AUC(0-inf) ([1]; mouse, C57 mice, single intravenous administration, read-out: AUC(0-∞)): 12100 ng·h/mL
C0 ([1]; mouse, C57 mice, single intravenous administration, read-out: C0): 1150 ng/mL
half-life ([1]; mouse, C57 mice, single intravenous administration, read-out: T1/2 (converted)): 20.1 h
GLP-1R Ki ratio (human GLP-1R): 0.63
